Test results published in patent US20050256132A1, “Use of ER selective NF-kB inhibitors for the treatment of sepsis” (priority 2003, published 2005).
Each block holds one compound with its values, some of them ahead of it.

How the values were obtained:
NF-κB = test: IL-1β stimulated NF-κB reporter activity in ERα expressing HAECT-1 cells; type: cell-based, human; details: 1 μM ICI, 1 μM compound 67, FIG. 1B
Description: HAECT-1 cells (Chadwick C C, et al., Proc Natl Acad Sciences, 2005, 102(7): 2543-2548) were cultured in EGM (GIBCO, Rockville, Md.) containing 10% FBS, 1% GlutaMAX and 0.1% Antimycotic-Antibiotic in Falcon T-175 culture flasks at 34° C. in 5% CO2 and infected for four hours with Ad5-wt-ER virus. After overnight recovery, the cells were infected for 2 hours with the Ad5-3x(NFκB).Luc or Ad5-IL6.Luc virus. Compound 67 and 2 ng/ml IL-1 were added to the cells for 15-20 h and the cell lysate was assayed for luciferase activity and evaluated for CK expression (Stanbio Laboratories, Texas). The values are reported as mean±SEM with n=4 from at least 3 independent experiments.

ER/IL-6 = test: Endothelial Cell ER/IL-6 Assay, IL-6 promoter luciferase (Table 2); type: cell-based, human; details: Homo sapiens, HAECT1, ERα infected HAECT-1 cells, IL-1β; for Emax: read-out: IL6 luc % Efficacy; for IC50: read-out: IL6 luc IC50
Outline: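 One lysate gave both read-outs: luciferase for ER/IL-6 and A340 rate after CK reagent for CK, with four-parameter logistic IC50/EC50. Cells were HAECT-1 aortic endothelial cells carrying adenoviral human ERα (or none), dosed […] at 34 °C from 2× stocks containing 2 ng/ml IL-1β and IL-6(1250 bp)-Luc adenovirus.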

CK = test: Creatine kinase assay in ERα infected HAECT-1 cells (Table 2); type: cell-based, human; details: Homo sapiens; for EC50: HAECT1; for Emax: HAECT1, read-out: CK % Efficacy
Description: T-175 flasks of 100% confluent HAECT-1 cells (immortalized human aortic endothelial cells) were washed with 8 ml of HBSS (HEPES buffered saline solution) and infected for fours hours with 6 ml of a 1:10 dilution of Ad5-wt-hERα virus (an adenovirus transfection vector that mediates CMV promoter driven expression of human ERα) in phenol red free Endothelial Cell Basal medium (Clonetics, San Diego, Calif., Catalog # CC-3129) containing 0.25% bovine serum albumin (EDM-BSA). After four hours, cells were washed with EDM-BSA and incubated overnight in the same medium. Following overnight incubation, cells were washed with EDM-BSA and infected for 2 hours with 6 ml of a 1:10 dilution of Ad5-3x(NFκB).Luc virus (Adenovirus luciferase expression vector driven by three repeats of the MHC NFκb sites 5′ to the thymidine kinase promoter) in EDM-BSA. After two hours, cells were washed and incubated at 34° C. for one hour. Cells were then washed, trypsinized, counted, and resuspended in 95% FBS/5% dimethylsulfoxide at a concentration of […], frozen as 1 or 5 ml aliquots in cryo-vials and stored at −150° C. Control (no ER infection) cells were processed as above without Ad5-wt-hERα virus infection.
ERα infected HAECT-1 cells or control cells were thawed, diluted 42× in warm EBM-BSA, plated into 96-well plates at 0.1 ml/well and incubated for 4 hours at 34° C. Test compounds were added to the cells at 2× stocks in EBM-BSA containing 2 ng/ml IL-1β Ad6-IL-6(1250 bp).Luc virus and plates were returned to the incubator (34° C.). After […], cells were lysed with 50 μl of Promega Cell Culture Lysis reagenet for about 5 minutes at room temperature on a shaker. After lysing, 15 μl of lysate is transferred to luminometer plates for luciferase determination. Luciferase activity is evaluated using a Perkin Elmer Victor2 1420 multilabel counter. Creatine kinase was determined from the rate of increase in A340 following addition of 100 μl of CK assay reagent (Sigma catalog no. 47-10) to the remainder of the cell lysate.
For IC50 and EC50 calculations, mean IL-6, luciferase or CK values versus log10 of the compound concentration were fitted to a four parameter logistic equation. The IC50/EC50 value, ‘Hill slope,’ upper and lower limits of the curve were iteratively estimated.

SMILES: C[C@]12CC[C@@H]3c4ccc(O)cc4C[C@@H](CCCCCCCCC[S+]([O-])CCCC(F)(F)C(F)(F)F)[C@H]3[C@@H]1CC[C@@H]2O (some centres unmarked) [ICI 182,780, reference compound]
- antagonism of the activity of compound 67 on NF-κB reporter (NF-κB): effectively antagonized

SMILES: COCCN1CCN(C(=O)C(C#N)(COCc2ccccc2)C(c2ccccc2OC)c2cccc3ccccc23)CC1 (centres unmarked) [Example 207, 2-[(benzyloxy)methyl]-3-[4-(2-methoxyethyl)piperazin-1-yl]-2-[(2-methoxyphenyl)(1-naphthyl)methyl]-3-oxopropanenitrile]
- Emax (ER/IL-6): 63%
- IC50 (ER/IL-6): 4000 nM
- melting point: 140 to 141 °C
- Emax (CK): -16%

SMILES: COC(=O)[C@@](C#N)(Cc1ccccn1)[C@H](c1ccccc1OC)c1cccc2ccccc12 (relative stereo) [Example 143, Methyl (2S*,3S*)-2-cyano-3-(2-methoxyphenyl)-3-(1-naphthyl)-2-(pyridin-2-ylmethyl)propanoate]
- Emax (ER/IL-6): 91%
- IC50 (ER/IL-6): 39 nM
- melting point: 194.4 to 196.3 °C
- EC50 (CK): 74 nM
- Emax (CK): 38%

SMILES: COC[C@](C#N)(C(=O)NCC(C)(C)C)[C@H](c1ccccc1OC)c1cccc2ccccc12 (relative stereo) [Example 181, (2S*,3S*)-2-cyano-N-(2,2-dimethylpropyl)-2-(methoxymethyl)-3-(2-methoxyphenyl)-3-(1-naphthyl)propanamide]
- Emax (ER/IL-6): 104%
- IC50 (ER/IL-6): 389 nM
- melting point: 184.9 to 185.5 °C
- Emax (CK): 2%

SMILES: COc1ccccc1[C@H](c1cccc2ccccc12)[C@@](C)(C#N)C(=O)N1CCN(CCN(C)C)CC1 [Example 216, (2S)-3-{4-[2-(dimethylamino)ethyl]piperazin-1-yl}-2-[(S)-(2-methoxyphenyl)(1-naphthyl)methyl]-2-methyl-3-oxopropanenitrile]
- Emax (ER/IL-6): 51%
- melting point: 84 to 85 °C
- Emax (CK): -21%

SMILES: COc1ccccc1[C@H](c1cccc2ccccc12)[C@@](C)(C#N)C(=O)N1CCN(c2ncccn2)CC1 [Example 192, (2S,3S)-3-(2-methoxyphenyl)-2-methyl-3-(1-naphthyl)-2-[(4-pyrimidin-2-ylpiperazin-1-yl)carbonyl]propanenitrile]
- Emax (ER/IL-6): 176%
- IC50 (ER/IL-6): 44 nM
- melting point: 153 to 154 °C
- EC50 (CK): 415 nM

SMILES: COC(=O)C(C)(C#N)C(c1ccccc1OC)c1ccnc2ccccc12 (centres unmarked) [Example 160, Methyl 2-cyano-3-(2-methoxyphenyl)-2-methyl-3-(quinolin-4-yl)propanoate]
- Emax (ER/IL-6): 82%
- IC50 (ER/IL-6): 1260 nM
- melting point: 192 to 193.9 °C
- Emax (CK): -10%

SMILES: COc1ccccc1[C@H](c1cccc2ccccc12)[C@@](C)(C#N)C(=O)N1CCC(N2C(=O)Cc3ccccc32)CC1 [Example 132, (2S,3S)-3-(2-methoxyphenyl)-2-methyl-3-(1-naphthyl)-2-{[4-(2-oxo-2,3-dihydro-1H-indol-1-yl)piperidin-1-yl]carbonyl}propanenitrile]
- Emax (ER/IL-6): 92%
- IC50 (ER/IL-6): 122 nM
- melting point: 227 to 230 °C
- EC50 (CK): 298 nM
- Emax (CK): 57%

SMILES: COCC(C#N)(C(=O)N1CCN(CCCN(C)C)CC1)C(c1ccccc1OC)c1cccc2ccccc12 (centres unmarked) [Example 204, 3-{4-[3-(dimethylamino)propyl]piperazin-1-yl}-2-(methoxymethyl)-2-[(2-methoxyphenyl)(1-naphthyl)methyl]-3-oxopropanenitrile]
- Emax (ER/IL-6): 23%
- IC50 (ER/IL-6): 117 nM
- melting point: 174 to 175 °C
- Emax (CK): -34%

SMILES: COc1ccccc1[C@H](c1cccc2ccccc12)[C@@](C)(C#N)C(=O)N1CCN(c2cnccn2)CC1 [Example 214, (2S,3S)-3-(2-methoxyphenyl)-2-methyl-3-(1-naphthyl)-2-[(4-pyrazin-2-ylpiperazin-1-yl)carbonyl]propanenitrile]
- Emax (ER/IL-6): 136%
- IC50 (ER/IL-6): 276 nM
- melting point: 143 to 144 °C
- Emax (CK): 12%

SMILES: COc1ccccc1[C@H](c1cccc2ccccc12)[C@@](C)(C#N)C(=O)N1CCC(O)(c2ccc(Cl)cc2)CC1 [Example 186, (2S)-3-[4-(4-chlorophenyl)-4-hydroxypiperidin-1-yl]-2-[(S)-(2-methoxyphenyl)(1-naphthyl)methyl]-2-methyl-3-oxopropanenitrile]
- Emax (ER/IL-6): 60%
- IC50 (ER/IL-6): 2460 nM
- melting point: 202 to 204 °C
- Emax (CK): 11%

Second part, led by results:

- IC50 (ER/IL-6): 21 nM
- melting point: 267 to 268 °C
- EC50 (CK): 50 nM
SMILES: COc1ccccc1[C@H](c1cccc2ccccc12)[C@@](C)(C#N)C(=O)N1CCC(c2c[nH]c3ccccc23)CC1 [Example 187, (2S)-3-[4-(1H-indol-3-yl)piperidin-1-yl]-2-[(S)-(2-methoxyphenyl)(1-naphthyl)methyl]-2-methyl-3-oxopropanenitrile]
- Emax (ER/IL-6): 134%
- Emax (CK): 48%

- IC50 (ER/IL-6): 15 nM
- melting point: 180 to 182 °C
- EC50 (CK): 212 nM
SMILES: COc1ccccc1[C@H](c1cccc2ccccc12)[C@@](C)(C#N)C(=O)N1CCN(c2cccc(Br)c2)CC1 [Example 131, (2S)-3-[4-(3-bromophenyl)piperazin-1-yl]-2-[(S)-(2-methoxyphenyl)(1-naphthyl)methyl]-2-methyl-3-oxopropanenitrile]
- Emax (ER/IL-6): 119%
- Emax (CK): 48%

- IC50 (ER/IL-6): 38 nM
- melting point: 149 °C
- EC50 (CK): 318 nM
SMILES: COC[C@](C#N)(C(=O)N1CCN(c2cnccn2)CC1)[C@H](c1ccccc1OC)c1cccc2ccccc12 [Example 223, (2S,3S)-2-(methoxymethyl)-3-(2-methoxyphenyl)-3-(1-naphthyl)-2-[(4-pyrazin-2-ylpiperazin-1-yl)carbonyl]propanenitrile]
- Emax (ER/IL-6): 154%
- Emax (CK): 24%

- IC50 (ER/IL-6): 2 nM
- melting point: 193 °C (dec.)
- EC50 (CK): 6 nM
SMILES: COC(=O)[C@](C#N)(Cc1cccnc1)[C@@H](c1ccccc1OC)c1cccc2ccccc12 [Example 155, Methyl (2R,3R)-2-cyano-3-(2-methoxyphenyl)-3-(1-naphthyl)-2-(pyridin-3-ylmethyl)propanoate]
- Emax (ER/IL-6): 105%
- Emax (CK): 33%

- IC50 (ER/IL-6): 15 nM
- melting point: 135 to 140 °C
- EC50 (CK): 34 nM
SMILES: COc1ccccc1C1CCN(C(=O)[C@](C)(C#N)[C@H](c2ccccc2OC)c2cccc3ccccc23)CC1 [Example 138, (2S,3S)-3-(2-methoxyphenyl)-2-{[4-(2-methoxyphenyl)piperidin-1-yl]carbonyl}-2-methyl-3-(1-naphthyl)propanenitrile]
- Emax (ER/IL-6): 131%
- Emax (CK): 49%

- IC50 (ER/IL-6): 23 nM
- melting point: 142 to 144.5 °C
SMILES: COC(=O)[C@@](C#N)(CCN(C)C)[C@H](c1ccccc1OC)c1cccc2ccccc12 (relative stereo) [Example 157, Methyl (2S*)-2-cyano-4-(dimethylamino)-2-[(S*)-(2-methoxyphenyl)(1-naphthyl)methyl]butanoate]
- Emax (ER/IL-6): 110%
- Emax (CK): -100%
